The target in experiment [1] is T1, recombinant human SOS1 polypeptide (amino acids 560-1049) (Homo sapiens, UniProt Q07889).
T1 construct: corresponding to amino acids 560-1049, expressed in E. Coli; made in house; host or cells: E. coli
T1 sequence (Q07889 560-1049): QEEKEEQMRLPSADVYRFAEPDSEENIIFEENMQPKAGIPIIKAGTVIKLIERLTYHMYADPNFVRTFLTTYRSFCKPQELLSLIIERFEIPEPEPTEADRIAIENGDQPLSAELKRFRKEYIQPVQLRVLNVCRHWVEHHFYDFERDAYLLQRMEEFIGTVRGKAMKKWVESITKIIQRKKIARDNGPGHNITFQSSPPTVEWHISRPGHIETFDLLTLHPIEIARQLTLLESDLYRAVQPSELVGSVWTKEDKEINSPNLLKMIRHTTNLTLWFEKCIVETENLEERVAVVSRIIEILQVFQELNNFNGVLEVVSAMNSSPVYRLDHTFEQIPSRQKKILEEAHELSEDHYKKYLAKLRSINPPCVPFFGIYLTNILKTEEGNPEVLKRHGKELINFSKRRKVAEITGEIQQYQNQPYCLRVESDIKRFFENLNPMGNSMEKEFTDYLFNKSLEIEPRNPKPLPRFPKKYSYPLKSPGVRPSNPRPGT
The experiment can be described thus: HTRF displacement assay: inhibition of labeled tracer binding to SOS1. To be noted: Table A, Morrison equation for competitive binding. (In general: In TR-FRET formats the signal depends on donor and acceptor labels being close together.)

In experiment [2] the test system is pERK in MKN1 cells. Briefly: pERK inhibition, In-Cell Western (LI-COR Odyssey), MKN1 cells. In kind it is cell-based. To be noted: MKN1 or H358 cells (table does not say which), 0.5-1 hour incubation, read-out: IC50 (nM), pERK inhibition. Summed up:
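MKN1 cells were exposed for about 0.5–1 h at 37 °C to nine 3-fold dilutions starting at 10 µM. Cells were then fixed in formaldehyde, permeabilised with methanol, and immunostained for pERK and GAPDH with near-infrared secondary antibodies. GAPDH-normalised pERK signal relative to vehicle gave % inhibition, from which IC50 was fitted.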

The structures appear in SMILES notation. Like-named read-outs stand apart in the source and are kept apart here.

The Ki is the equilibrium dissociation constant of an inhibitor or competing ligand from its target. As a reminder, the IC50 is the concentration that gives 50% inhibition. Consider `Cc1c(C#N)cccc1[C@@H](C)Nc1nnc(C)c2cc(F)c(N3CC4(COC4)C3)cc12` [Example 4-2, (R)-3-(1-((6-fluoro-4-methyl-7-(2-oxa-6-azaspiro[3.3]heptan-6-yl)phthalazin-1-yl)amino)ethyl)-2-methylbenzonitrile], for which the Ki in experiment [1] turned out to be 5.85 nM. Further, the IC50 in experiment [2] (Homo sapiens, MKN-1, Table B) worked out at 64 nM.
In the case of `Cc1c(C#N)cccc1[C@@H](C)Nc1nnc(C)c2cc(F)c(N(C)C3CCN(C)CC3)cc12` [Example 4-3, (R)-3-(1-((6-fluoro-4-methyl-7-(methyl(1-methylpiperidin-4-yl)amino)phthalazin-1-yl)amino)ethyl)-2-methylbenzonitrile], in experiment [1], the Ki turned out to be 3.34 nM. The IC50 in experiment [2] (Homo sapiens, MKN-1, Table B) amounted to 150 nM.
As to `Cc1c(C#N)cccc1[C@@H](C)Nc1nnc(C)c2cc(F)c(N3CCC34CN(C)C4)cc12` [Example 4-4, (R)-3-(1-((6-fluoro-4-methyl-7-(6-methyl-1,6-diazaspiro[3.3]heptan-1-yl)phthalazin-1-yl)amino)ethyl)-2-methylbenzonitrile], the Ki in experiment [1] amounted to 0.892 nM. In addition, the half-maximal inhibitory concentration (IC50) in experiment [2] (Homo sapiens, MKN-1, Table B) was found to be 39.6 nM.
For `Cc1nnc(N[C@H](C)c2cccc(C(F)(F)F)c2F)c2cc(N3CCC34CN(C)C4)c(F)cc12` [Example 4-5, (R)-6-fluoro-N-(1-(2-fluoro-3-(trifluoromethyl)phenyl)ethyl)-4-methyl-7-(6-methyl-1,6-diazaspiro[3.3]heptan-1-yl)phthalazin-1-amine], in that order: 0.585 nM and 103 nM.
For `Cc1nnc(N[C@H](C)c2cccc(C(F)(F)F)c2F)c2cc(N3CCOCC3)c(F)cc12` [Example 4-6, (R)-6-fluoro-N-(1-(2-fluoro-3-(trifluoromethyl)phenyl)ethyl)-4-methyl-7-morpholinophthalazin-1-amine], the Ki in experiment [1] is 12.3 nM. Moreover, in experiment [2] (Homo sapiens, MKN-1, Table B), the IC50 is 176 nM.
Turning to `Cc1nnc(N[C@H](C)c2cccc(C(F)(F)F)c2F)c2cc(N3CCN(C)CC3)c(F)cc12` [Example 4-7, (R)-6-fluoro-N-(1-(2-fluoro-3-(trifluoromethyl)phenyl)ethyl)-4-methyl-7-(4-methylpiperazin-1-yl)phthalazin-1-amine], the Ki in experiment [1] was found to be 1.06 nM. Besides, the IC50 in experiment [2] (Homo sapiens, MKN-1, Table B) was determined as 110 nM.
The like results for `Cc1c(C#N)cccc1[C@@H](C)Nc1nnc(C)c2cc(F)c(N3CC4(CN(C)C4)C3)cc12` [Example 4-9, (R)-3-(1-((6-fluoro-4-methyl-7-(6-methyl-2,6-diazaspiro[3.3]heptan-2-yl)phthalazin-1-yl)amino)ethyl)-2-methylbenzonitrile] were, in that order, 0.343 nM and 24.1 nM.
The like results for `Cc1nnc(N[C@H](C)c2cccc(C(F)(F)F)c2F)c2cc(N3CC4(COC4)C3)c(F)cc12` [Example 4-10, (R)-6-fluoro-N-(1-(2-fluoro-3-(trifluoromethyl)phenyl)ethyl)-4-methyl-7-(2-oxa-6-azaspiro[3.3]heptan-6-yl)phthalazin-1-amine] were, in that order, 2.4 nM and 141 nM.
Take `Cc1c(C#N)cccc1[C@@H](C)Nc1nnc(C)c2cc(F)c(N3CCN4CCOC[C@@H]4C3)cc12` [Example 4-11, 3-((R)-1-((6-fluoro-7-((S)-hexahydropyrazino[2,1-c][1,4]oxazin-8(1H)-yl)-4-methylphthalazin-1-yl)amino)ethyl)-2-methylbenzonitrile]: the Ki in experiment [1] amounted to 5.77 nM. Moreover, the IC50 in experiment [2] (Homo sapiens, MKN-1, Table B) is 162 nM.
The like results for `Cc1c(C#N)cccc1[C@@H](C)Nc1nnc(C)c2cc(F)c(N3C[C@@H]4C[C@H]3CO4)cc12` [Example 4-13, 3-((R)-1-((7-((1S,4S)-2-oxa-5-azabicyclo[2.2.1]heptan-5-yl)-6-fluoro-4-methylphthalazin-1-yl)amino)ethyl)-2-methylbenzonitrile] were, in that order, 16.1 nM and 165 nM.
With `Cc1c(C#N)cccc1[C@@H](C)Nc1nnc(C)c2cc(F)c(N3C[C@@H]4C[C@H]3CN4C)cc12` [Example 4-14, 3-((R)-1-((6-fluoro-4-methyl-7-((1S,4S)-5-methyl-2,5-diazabicyclo[2.2.1]heptan-2-yl)phthalazin-1-yl)amino)ethyl)-2-methylbenzonitrile], in experiment [1], the Ki came to 1.16 nM. Also, in experiment [2] (Table B), the IC50 worked out at 41.6 nM.
For `Cc1c(C#N)cccc1[C@@H](C)Nc1nnc(C)c2cc(F)c(N3C[C@H]4C[C@@H]3CO4)cc12` [Example 4-15, 3-((R)-1-((7-((1R,4R)-2-oxa-5-azabicyclo[2.2.1]heptan-5-yl)-6-fluoro-4-methylphthalazin-1-yl)amino)ethyl)-2-methylbenzonitrile], the Ki in experiment [1] came to 4.66 nM. In addition, the IC50 in experiment [2] (Homo sapiens, MKN-1, Table B) is 37.8 nM.
The like results for `Cc1nnc(N[C@H](C)c2cccc(C(C)(F)F)c2F)c2cc(N3CCN(C)CC3)c(F)cc12` [Example 4-16, (R)-N-(1-(3-(1,1-difluoroethyl)-2-fluorophenyl)ethyl)-6-fluoro-4-methyl-7-(4-methylpiperazin-1-yl)phthalazin-1-amine] were, in that order, 0.742 nM and 52 nM.
For `COCCN(C)c1cc2c(N[C@H](C)c3cccc(C#N)c3C)nnc(C)c2cc1F` [Example 4-17, (R)-3-(1-((6-fluoro-7-((2-methoxyethyl)(methyl)amino)-4-methylphthalazin-1-yl)amino)ethyl)-2-methylbenzonitrile], the Ki in experiment [1] is 9.16 nM. The IC50 in experiment [2] (Homo sapiens, MKN-1, Table B) came to 814 nM.
The like results for `Cc1c(C#N)cccc1[C@@H](C)Nc1nnc(C)c2cc(F)c(N3CCN(C)C(C)(C)C3)cc12` [Example 4-18, (R)-3-(1-((6-fluoro-4-methyl-7-(3,3,4-trimethylpiperazin-1-yl)phthalazin-1-yl)amino)ethyl)-2-methylbenzonitrile] were, in that order, 1.42 nM and 118 nM.
With `Cc1c(C#N)cccc1[C@@H](C)Nc1nnc(C)c2cc(F)c(N3CCS(=O)(=O)CC3)cc12` [Example 4-19, (R)-3-(1-((7-(1,1-dioxidothiomorpholino)-6-fluoro-4-methylphthalazin-1-yl)amino)ethyl)-2-methylbenzonitrile], the Ki in experiment [1] is 3.53 nM. For the same compound, the IC50 in experiment [2] (Homo sapiens, MKN-1, Table B) stood at 551 nM.
On to `Cc1c(C#N)cccc1[C@@H](C)Nc1nnc(C)c2cc(F)c(N3C[C@@H]4C[C@H]3CN4C)cc12` [Example 4-21, 3-((R)-1-((6-fluoro-4-methyl-7-((1S,4S)-5-methyl-2,5-diazabicyclo[2.2.1]heptan-2-yl)phthalazin-1-yl)amino)ethyl)-2-methylbenzonitrile], for which, in experiment [1], the Ki was determined as 2 nM. The IC50 in experiment [2] (Table B) was 16 nM.
Take `Cc1c([C@@H](C)Nc2nnc(C)c3cc(F)c(N4CCOCC4)cc23)cc(N)nc1C(F)(F)F` [Example 4-22, (R)-N-(1-(6-amino-3-methyl-2-(trifluoromethyl)pyridin-4-yl)ethyl)-6-fluoro-4-methyl-7-morpholinophthalazin-1-amine]: in experiment [1], the Ki is 22 nM. Besides, the IC50 in experiment [2] (Homo sapiens, MKN-1, Table B) amounted to 49 nM.
Regarding `Cc1nnc(N[C@H](C)c2cccc(C(F)(F)F)c2F)c2cc(N(C)C3CCN(C)CC3)c(F)cc12` [Example 4-23, (R)-6-fluoro-N^1-(1-(2-fluoro-3-(trifluoromethyl)phenyl)ethyl)-N^7,4-dimethyl-N^7-(1-methylpiperidin-4-yl)phthalazine-1,7-diamine], the Ki in experiment [1] turned out to be 1.2 nM. Also, the IC50 in experiment [2] (Homo sapiens, MKN-1, Table B) was 25 nM.
